# Source: US7989628B2, “2-aminoquinolines” (Hoffmann-La Roche Inc., priority 2008, dated 2011)
# Molecular target: T1, recombinant human 5-HT5A receptor (Homo sapiens, UniProt P47898)
# T1 construct: expressed in transfected cells; host or cells: HEK-EBNA (Human Embryonic Kidney-EBNA) cells, transient cDNA expression; membranes
# Assay: [3H]LSD radioligand binding assay
# Conditions: [3H]LSD approx. 1 nM; membranes from HEK-EBNA cells transiently expressing 5-HT5A; Ki by Cheng-Prussoff equation
# Protocol: A [^3H]LSD radioligand binding assay was used to determine the affinity of the compounds for the recombinant human 5-HT5A receptor, in membranes from transiently (cDNA) expressed 5-HT5A receptors in Human Embryonic Kidney-EBNA (HEK-EBNA) cells. Assay buffer consisted of Tris (50 mM) buffer containing 1 mM EGTA, 10 mM MgCl2 (pH 7.4) and 10 μM pargyline. The binding assay was carried out in 96-well-plates in the presence of [^3H]LSD (approximately 1 nM), approximately 2 μg/well of membrane protein, and 0.5 mg of Ysi-poly-1-lysine SPA beads in a final volume of 200 μl of buffer. Non-specific binding was defined using methiothepin 2 μM. Compounds were tested at 10 concentrations. All assays were conducted in duplicate and repeated at least two times. Assay plates were incubated for 120 min at room temperature before centrifugation. Bound ligand was determined using a Packard Topcount scintillation counter. IC50 values were calculated using a non-linear curve fitting program and Ki values calculated using the Cheng-Prussoff equation.
# T1 sequence (P47898 whole entry): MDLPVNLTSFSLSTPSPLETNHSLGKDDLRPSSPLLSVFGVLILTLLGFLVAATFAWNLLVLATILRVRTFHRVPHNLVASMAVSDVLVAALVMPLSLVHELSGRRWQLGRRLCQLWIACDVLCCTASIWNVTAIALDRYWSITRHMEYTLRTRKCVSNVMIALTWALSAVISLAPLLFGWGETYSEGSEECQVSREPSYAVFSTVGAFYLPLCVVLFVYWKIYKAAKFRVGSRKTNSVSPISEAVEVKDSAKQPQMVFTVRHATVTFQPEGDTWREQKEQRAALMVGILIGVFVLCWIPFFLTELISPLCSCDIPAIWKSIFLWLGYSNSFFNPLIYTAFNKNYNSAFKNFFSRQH
row,Compound,Ki
1,"COc1ccccc1CNc1ccc2c(N)cccc2n1 [Example 1, N^2-(2-Methoxy-benzyl)-quinoline-2,5-diamine]",0.0273 µM
2,"Cc1ccc(CNc2ccc3c(N)cccc3n2)o1 [Example 2, N^2-(5-Methyl-furan-2-ylmethyl)-quinoline-2,5-diamine]",0.0838 µM
3,"Cc1ccc(CNc2ccc3c(NC4CCOCC4)cccc3n2)o1 [Example 7, N^2-(5-Methyl-furan-2-ylmethyl)-N^5-(tetrahydro-pyran-4-yl)-quinoline-2,5-diamine]",0.092 µM
4,"CSCCNc1cccc2nc(NCc3ccc(C)o3)ccc12 [Example 9, N^2-(5-Methyl-furan-2-ylmethyl)-N^5-(2-methylsulfanyl-ethyl)-quinoline-2,5-diamine]",0.0812 µM
5,"Cc1ccc(CNc2ccc3c(NCC[S+](C)[O-])cccc3n2)o1 (stereo not shown) [Example 10, N^5-(2-Methanesulfinyl-ethyl)-N^2-(5-methyl-furan-2-ylmethyl)-quinoline-2,5-diamine]",0.0993 µM
6,"Nc1cccc2nc(NCc3ccccc3OC(F)(F)F)ccc12 [Example 13, N^2-(2-Trifluoromethoxy-benzyl)-quinoline-2,5-diamine]",0.0939 µM
7,"Cc1cc2cccc(Nc3ccc4c(N)cccc4n3)c2o1 [Example 14, N^2-(2-Methyl-benzofuran-7-yl)-quinoline-2,5-diamine]",0.112 µM
8,"CC1Cc2cccc(Nc3ccc4c(N)cccc4n3)c2O1 (stereo not shown) [Example 15, N^2-(2-Methyl-2,3-dihydro-benzofuran-7-yl)-quinoline-2,5-diamine]",0.0494 µM
9,"CC1(C)Cc2cccc(Nc3ccc4c(N)cccc4n3)c2O1 [Example 16, N^2-(2,2-Dimethyl-2,3-dihydro-benzofuran-7-yl)-quinoline-2,5-diamine]",0.0444 µM
10,"Nc1cccc2nc(Nc3cccc(C4CC4)c3)ccc12 [Example 18, N^2-(3-Cyclopropyl-phenyl)-quinoline-2,5-diamine]",0.0712 µM
11,"Cc1ccc(CNc2ccc3c(NS(=O)(=O)N(C)C)cccc3n2)o1 [Example 20, N,N-dimethyl-N′-(2-{[(5-methyl-2-furyl)methyl]amino}quinolin-5-yl)sulfamide]",0.0604 µM
12,"CC1Cc2cccc(Nc3ccc4c(NS(=O)(=O)N(C)C)cccc4n3)c2O1 (stereo not shown) [Example 21, N,N-dimethyl-N′-{2-[(2-methyl-2,3-dihydro-1-benzofuran-7-yl)amino]quinolin-5-yl}sulfamide]",0.101 µM
13,"Cc1ccc(CNc2ccc3c(CCCCO)cccc3n2)o1 [Example 26, 4-{2-[(5-Methyl-furan-2-ylmethyl)-amino]-quinolin-5-yl}-butan-1-ol]",0.0618 µM
14,"COc1ccccc1CNc1ccc2c(OCCSC)cccc2n1 [Example 30, (2-Methoxy-benzyl)-[5-(2-methylsulfanyl-ethoxy)-quinolin-2-yl]-amine]",0.219 µM
15,"COc1ccccc1CNc1ccc2c(C(=N)NO)cccc2n1 [Example 32, N-Hydroxy-2-(2-methoxy-benzylamino)-quinoline-5-carboxamidine]",0.0447 µM

# Tested on: not given
# Assay: not given
# Conditions: not given
row,Compound,melting point
1,"COc1ccccc1CNc1ccc2c(C(=N)NO)cccc2n1 [Example 32, N-Hydroxy-2-(2-methoxy-benzylamino)-quinoline-5-carboxamidine]",161 °C
